pIC50: −log10 of the molar value. Like-named read-outs stand apart in the source and are kept apart here.
What was measured:
[1] = target: BRD4 (BD1+BD2) bromodomain (Homo sapiens (Human), UniProt O60885); assay: BRD4 binding inhibition (AlphaScreen, GST-BRD4 vs tetraacetylated histone H4 peptide)
In short: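 GST-BRD4 (BD1+BD2) and biotinylated tetraacetyl-histone H4 peptide, each at 100 nM in HEPES pH 7.4 buffer with BSA and DTT, were combined with compound. Glutathione acceptor and streptavidin donor beads were added, then incubated 30 min at room temperature in the dark. Read-out was AlphaScreen signal.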

[2] = system: acute myelogenous leukemia cells (MV-4-11 cells); assay: Cytotoxicity to acute myelogenous leukemia cells (MV-4-11 cells), CCK-8
Description: The following experiment was performed to evaluate the cytotoxicity of [1,2,4]triazolo[4,3-a]quinoxaline derivative according to the present invention to acute myelogenous leukemia cells (MV-4-11 cells).
Acute myelogenous leukemia cells (MV-4-11 cells) were distributed in a 96 well plate at the density of 5×10^3 cells/well. The plated cells were treated with the compounds of the present invention dissolved in DMSO at the different concentrations ranging from 0.01 μM to 10 μM. 72 hours later, the activities of the compounds were determined using CCK-8 reagent.

[3] = GST-BRD4 (BD1+BD2) / biotinylated acetyl-histone H4 (Lys5,8,12,16) peptide, read-out: IC50, BRD4 binding inhibition
[4] = GST-BRD4 (BD1+BD2) vs biotinylated acetyl-histone H4 peptide, AlphaScreen, read-out: BRD4 IC50
[5] = Homo sapiens, MV4-11, 72 h, read-out: IC50, cytotoxicity against acute myelogenous leukemia cells
[6] = Homo sapiens, MV4-11, 72 h, read-out: MV-4-11 Cytotoxicity IC50

Compound | pIC50 [1, 3] | pIC50 [1, 4] | pIC50 [2, 5] | pIC50 [2, 6] | pIC50 ([1]; IC50, BRD4 binding inhibition, GST-BRD4 (BD1+BD2) / biotinylated acetyl-histone H4 (Lys5,8,12,16) peptide) | pIC50 ([2]; read-out: IC50, cytotoxicity against acute myelogenous leukemia cells, MV-4-11 cells, 72 hours, CCK-8) | pIC50 ([2]; read-out: MV-4-11 Cytotoxicity IC50, MV-4-11 cells, 72 hours, CCK-8)
COc1cc2nc(NCCCCC(=O)NCC(C)C)c3nnc(C)n3c2cc1OC [Example 648, 5-(7,8-dimethoxy-1-methyl-[1,2,4]triazolo[4,3-a]quinoxaline-4-ylamino)-pentanoic acid-isobutylamide] | ≥ 7.30 | 7.57 | ≥ 6.70 | 6.89 |  |  | 
COc1ccc2c(c1)nc(NCCCCNC(=O)C(C)(C)C(F)(F)F)c1nnc(C)n12 [Example 293, 3,3,3-trifluoro-N-[4-(7-methoxy-1-methyl-[1,2,4]triazolo[4,3-a]quinoxaline-4-ylamino)-butyl]-2,2-dimethyl-propaneamide] | ≥ 7.30 | 7.40 |  | 6.17 |  |  | 
COc1cc2nc(NCCCCNC(=O)c3ccccn3)c3nnc(C)n3c2cc1OC [Example 105, pyridine-2-carboxylic acid-[4-(7,8-dimethoxy-1-methyl-[1,2,4]triazolo[4,3-a]quinoxaline-4-ylamino)-butyl]-amide] |  | 7.22 |  | 6.19 |  |  | 
COCCOc1ccc2c(c1)nc(NCCCCNC(=O)Oc1ccccc1)c1nnc(C)n12 [Example 372, {4-[7-(2-methoxy-ethoxy)-1-methyl-[1,2,4]triazolo[4,3-a]quinoxaline-4-ylamino]-butyl}-carbamic acid phenylester] |  |  | ≥ 6.70 | 6.74 | ≥ 8.00 |  | 
Cc1nnc2c(NCCCCNC(=O)c3ccccc3Cl)nc3ccc(OC(F)(F)F)cc3n12 [Example 268, 2-chloro-N-[4-(1-methyl-8-trifluoromethoxy-[1,2,4]triazolo[4,3-a]quinoxaline-4-ylamino)-butyl]-benzamide] | ≥ 7.30 | 7.46 |  | 6.30 |  |  | 
Cc1nnc2c(NCCCCNC(=O)OC3CCCC3)nc3cc(OC(C)C)ccc3n12 [Example 453, [4-(7-isopropoxy-1-methyl-[1,2,4]triazolo[4,3-a]quinoxaline-4-ylamino)-butyl]-carbamic acid cyclopentyl ester] | ≥ 7.30 | 7.62 |  | 6.30 |  |  | 
Cc1nnc2c(NCCCCNC(=O)CC(C)C)nc3cc(OCC4CCCCO4)ccc3n12 (stereo not shown) [Example 343, 3-methyl-N-{4-[1-methyl-7-(tetrahydro-pyran-2-yl-methoxy)-[1,2,4]triazolo[4,3-a]quinoxaline-4-ylamino]-butyl}-butyramide] | ≥ 7.30 | 7.44 | ≥ 6.70 | 6.92 |  |  | 
COc1cccc2c1nc(NCCCCNC(=O)OC(C)(C)C)c1nnc(C)n12 [Example 117, [4-(6-methoxy-1-methyl-[1,2,4]triazolo[4,3-a]quinoxaline-4-ylamino)-butyl]-carbamic acid-tert-butylester] |  | 7.19 |  | 6.43 |  |  | 
COc1cc2nc(NCCCCN)c3nnc(C)n3c2cc1C [Example 465, N^1-(7-methoxy-1,8-dimethyl-[1,2,4]triazolo[4,3-a]quinoxaline-4-yl)-butane-1,4-diamine ditrifluoroacetic acid] |  | 7.14 |  | 6.16 |  |  | 
benzoic acid 1-methyl-4-[4-(3-methyl-butylamino)-butylamino]-[1,2,4]triazolo[4,3-a]quinoxaline-7-yl ester [Example 350] | ≥ 7.30 | 7.48 |  |  |  | ≥ 6.70 | 7.15
Cc1nnc2c(NCCCCNC(=O)c3ccccc3Cl)nc3cc4c(cc3n12)OCCO4 [Example 187, 2-chloro-N-[4-(1-methyl-8,9-dihydro-7,10-dioxa-2,3,5,11b-tetraaza-cyclopenta[a]anthracene-4-ylamino)-butyl]-benzamide] | ≥ 7.30 | 7.62 | ≥ 6.70 | 6.96 |  |  | 
Cc1nnc2c(NCCCCNC(=O)[C@@H](NC(=O)OC(C)C)C(C)C)nc3cc(N4C[C@@H](C)O[C@@H](C)C4)ccc3n12 [Example 520, (S)-(1-{4-[7-(2,6-dimethyl-morpholine-4-yl)-1-methyl-[1,2,4]triazolo[4,3-a]quinoxaline-4-ylamino]-butylcarbamoyl}-2-methyl-propyl)-carbamic acid isopropylester] | ≥ 7.30 | 7.62 | ≥ 6.70 | 6.76 |  |  | 
Cc1nnc2c(NCCCCNC(=O)OC(C)(C)C)nc3cc(N4CCOCC4)ccc3n12 [Example 497, [4-(1-methyl-7-morpholine-4-yl-[1,2,4]triazolo[4,3-a]quinoxaline-4-ylamino)-butyl]-carbamic acid-tert-butylester] | ≥ 7.30 | 7.42 |  | 6.14 |  |  | 

The remaining compounds from weak to strong by pIC50 [1, 4], led by results:

pIC50 [1, 3] | pIC50 [1, 4] | Compound | pIC50 [2, 5] | pIC50 [2, 6] | pIC50 ([1]; IC50, BRD4 binding inhibition, GST-BRD4 (BD1+BD2) / biotinylated acetyl-histone H4 (Lys5,8,12,16) peptide) | pIC50 ([2]; read-out: IC50, cytotoxicity against acute myelogenous leukemia cells, MV-4-11 cells, 72 hours, CCK-8) | pIC50 ([2]; read-out: MV-4-11 Cytotoxicity IC50, MV-4-11 cells, 72 hours, CCK-8)
≥ 7.30 | 7.62 | Cc1nnc2c(NCCCCNC(=O)CC(C)C)nc3ccc(NCCCC#N)cc3n12 [Example 553, N-{4-[8-(3-cyano-propylamino)-1-methyl-[1,2,4]triazolo[4,3-a]quinoxaline-4-ylamino]-butyl}-3-methyl-butyramide] | ≥ 6.70 | 6.76 |  |  | 
≥ 7.30 | 7.72 | Cc1nnc2c(NCCCCNC(=O)[C@@H](NC(=O)OC(C)(C)C)C(C)C)nc3cc(N4C[C@@H](C)O[C@@H](C)C4)ccc3n12 [Example 513, (S)-{2-methyl-1-[4-(1-methyl-7-(2,6-dimethyl-morpholine-4-yl)-[1,2,4]triazolo[4,3-a]quinoxaline-4-ylamino)-butylcarbamoyl]-propyl}-carbamic acid-tert-butylester] |  | 6.55 |  |  | 
≥ 7.30 | 7.80 | CCc1nnc2c(NCCCCNC(=O)OC(C)(C)C)nc3cc(OC)ccc3n12 [Example 620, [4-(7-methoxy-1-ethyl-[1,2,4]triazolo[4,3-a]quinoxaline-4-ylamino)-butyl]-carbamic acid-tert-butylester] |  | 6.15 |  |  | 
≥ 7.30 | 7.89 | Cc1nnc2c(NCCCCNC(=O)C(C)(C)C)nc3cc(-c4nc5ccccc5n4C)ccc3n12 [Example 230, 2,2-dimethyl-N-{4-[1-methyl-7-(1-methyl-1H-benzoimidazole-2-yl)-[1,2,4]triazolo[4,3-a]quinoxaline-4-ylamino]-butyl}-propionamide] |  | 6.24 |  |  | 
≥ 7.30 | 7.89 | COCCOc1ccc2c(c1)nc(NCCCCNC(=O)c1ccccc1)c1nnc(C)n12 [Example 408, N-{4-[7-(2-methoxy-ethoxy)-1-methyl-[1,2,4]triazolo[4,3-a]quinoxaline-4-ylamino]-butyl}-benzamide] |  | 6.21 |  |  | 
≥ 8.00 | 8.00 | Cc1nnc2c(NCCCCNC(=O)CC(C)C)nc3cc(N4CCOCC4)ccc3n12 [Example 499, 3-methyl-N-[4-(1-methyl-7-morpholine-4-yl-[1,2,4]triazolo[4,3-a]quinoxaline-4-ylamino)-butyl]-butyramide] | ≥ 6.70 | 6.85 |  |  | 
≥ 8.00 | 8.30 | CCCOC(=O)NCCCCNc1nc2cc(OCCOC)ccc2n2c(C)nnc12 [Example 367, {4-[7-(2-methoxy-ethoxy)-1-methyl-[1,2,4]triazolo[4,3-a]quinoxaline-4-ylamino]-butyl}-carbamic acid propylester] |  | 6.46 |  |  | 
≥ 8.00 | 8.30 | COc1cc2nc(NCCCCNC(=O)CCC(C)C)c3nnc(C)n3c2cc1OC [Example 79, 4-methyl-pentanoic acid [4-(7,8-dimethoxy-1-methyl-[1,2,4]triazolo[4,3-a]quinoxaline-4-ylamino)-butyl]-amide] | ≥ 6.70 | 7.15 |  |  | 
≥ 8.00 | 8.40 | COc1ccc2c(c1)nc(NCCCCNC(=O)[C@@H](NC(=O)OC(C)C)C(C)C)c1nnc(C)n12 [Example 320, (S)-{1-[4-(7-methoxy-1-methyl-[1,2,4]triazolo[4,3-a]quinoxaline-4-ylamino)-butylcarbamoyl]-2-methyl-propyl}-carbamic acid isopropylester] |  | 6.17 |  |  | 
≥ 8.00 | 8.52 | COCCOc1ccc2c(c1)nc(NCCCCNC(=O)NC(C)C)c1nnc(C)n12 [Example 422, 1-isopropyl-3-{4-[7-(2-methoxy-ethoxy)-1-methyl-[1,2,4]triazolo[4,3-a]quinoxaline-4-ylamino]-butyl}-urea] |  | 6.35 |  |  | 
≥ 8.00 | 8.70 | CCC(F)(F)C(=O)NCCCCNc1nc2cc(-c3nc4ccccc4n3C)ccc2n2c(C)nnc12 [Example 233, 2,2-difluoro-N-{4-[1-methyl-7-(1-methyl-1H-benzoimidazole-2-yl)-[1,2,4]triazolo[4,3-a]quinoxaline-4-ylamino]-butyl}-butyramide] | ≥ 6.70 | 7.15 |  |  | 
≥ 8.00 | 9.00 | Cc1nnc2c(NCCCCNC(=O)CC(C)C)nc3cc(-c4nc5ccccc5n4C)ccc3n12 [Example 222, 3-methyl-N-{4-[1-methyl-7-(1-methyl-1H-benzoimidazole-2-yl)-[1,2,4]triazolo[4,3-a]quinoxaline-4-ylamino]-butyl}-butyramide] | ≥ 6.70 | 7.28 |  |  | 
≥ 8.00 | 9.00 | COCCOc1ccc2c(c1)nc(NCCCCNC(=O)[C@@H](NC(=O)OCC(C)C)C(C)C)c1nnc(C)n12 [Example 398, (S)-(1-{4-[7-(2-methoxy-ethoxy)-1-methyl-[1,2,4]triazolo[4,3-a]quinoxaline-4-ylamino]-butylcarbamoyl}-2-methyl-propyl)-carbamic acid isobutylester] |  | 6.10 |  |  | 

From patent publication US11028090B2 (Dong Wha Pharm. Co., Ltd., priority 2017, dated 2021)
